Test results from ChEMBL document CHEMBL3124787, “Discovery of novel bis-oxazolidinone compounds as potential potent and selective antitubercular agents” (Bioorg Med Chem Lett, 2014).

What was measured:
Format in all cases: functional
[1] = test system: Mycobacterium tuberculosis; experiment: Ratio of MIC for compound to linezolid for multidrug-resistant Mycobacterium tuberculosis
[2] = test system: Mycobacterium tuberculosis; experiment: Ratio of MIC for compound to linezolid for extensive drug-resistant Mycobacterium tuberculosis
[3] = test system: Mycobacterium tuberculosis; experiment: Antitubercular activity against extensive drug-resistant Mycobacterium tuberculosis clinical isolate 6 assessed as growth inhibition by microdilution method
[4] = test system: Mycobacterium tuberculosis; experiment: Antitubercular activity against extensive drug-resistant Mycobacterium tuberculosis clinical isolate 7 assessed as growth inhibition by microdilution method
[5] = test system: Mycobacterium tuberculosis; experiment: Antitubercular activity against isoniazid-resistant Mycobacterium tuberculosis H37RV clinical isolate 1 assessed as growth inhibition by microdilution method; settings: H37Rv isolate 1
[6] = test system: Mycobacterium tuberculosis; experiment: Antitubercular activity against multidrug-resistant Mycobacterium tuberculosis clinical isolate 2 assessed as growth inhibition by microdilution method
[7] = test system: Mycobacterium tuberculosis; experiment: Antitubercular activity against extensive drug-resistant Mycobacterium tuberculosis clinical isolate 4 assessed as growth inhibition by microdilution method
[8] = test system: Mycobacterium tuberculosis; experiment: Antitubercular activity against multidrug-resistant Mycobacterium tuberculosis clinical isolate 3 assessed as growth inhibition by microdilution method
[9] = test system: Mycobacterium tuberculosis; experiment: Antitubercular activity against extensive drug-resistant Mycobacterium tuberculosis clinical isolate 5 assessed as growth inhibition by microdilution method

Row | Structure (SMILES) | Ratio [1] | Ratio [2] | MIC [3] | MIC [4] | MIC [5] | MIC [6] | MIC [7] | MIC [8] | MIC [9]
1 | CC(=O)NC[C@H]1CN(c2ccc(OC[C@@H]3CN(c4ccccc4)C(=O)O3)c(F)c2)C(=O)O1 | >20 | >20 | 2 µg/mL | 8 µg/mL | 8 µg/mL | 4 µg/mL | 4 µg/mL | 4 µg/mL | 4 µg/mL
2 | COc1ccc(N2C[C@@H](COc3ccc(N4C[C@H](CNC(C)=O)OC4=O)cc3F)OC2=O)cc1 | >20 | >20 | 2 µg/mL | 8 µg/mL | 4 µg/mL | 4 µg/mL | 4 µg/mL | 4 µg/mL | 4 µg/mL
3 | NNC(=O)c1ccncc1 [ISONIAZID] |  |  | 4 µg/mL | 8 µg/mL | 2 µg/mL | 8 µg/mL | 2 µg/mL | 2 µg/mL | 4 µg/mL
4 | CC(=O)NC[C@H]1CN(c2ccc(N3CCOCC3)c(F)c2)C(=O)O1 [LINEZOLID] |  |  | 0.25 µg/mL | 0.25 µg/mL | 0.25 µg/mL |  | 1 µg/mL | 0.25 µg/mL | 0.25 µg/mL
